Columns and labels:
Test in all cases: relative viability (nuclei count vs DMSO), 5 days (fraction); higher = more cells survive
LCLC-103H = system: LCLC-103H
Procedure, shortened: (§1)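 Nuclei were stained with Hoechst during a one-step fixation (final 0.05% Triton X-100, 1% formaldehyde, 1 ug/ml Hoechst) carried out 5 days after dosing, then counted on 4× images. The cells, lung cancer lines in 1536-well plates, had been dosed by pin tool the day after seeding with one drug alone or a fixed anchor-drug dose plus five library-drug doses (not always all listed) in √10 steps. Relative viability is the nuclei count in treated wells divided by that in vehicle wells, and each value is the median of duplicate plates.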

NCI-H1993 = system: NCI-H1993
Procedure, shortened: as §1

RERF-LC-KJ = system: RERF-LC-KJ
Procedure, shortened: as §1

NCI-H1651 = system: NCI-H1651
Procedure, shortened: as §1

HOP-62 = system: HOP-62
Procedure, shortened: as §1

COR-L 105 = system: COR-L 105
Procedure, shortened: as §1

COR-L23 = system: COR-L23
Procedure, shortened: as §1

NCI-H647 = system: NCI-H647
Procedure, shortened: as §1

SK-MES-1 = system: SK-MES-1
Procedure, shortened: as §1

NCI-H1395 = system: NCI-H1395
Procedure, shortened: as §1

NCI-H2085 = system: NCI-H2085
Procedure, shortened: as §1

NCI-H3122 = system: NCI-H3122
Procedure, shortened: as §1

NCI-H1975 = system: NCI-H1975
Procedure, shortened: as §1

PC-14 = system: PC-14
Procedure, shortened: as §1

NCI-H2087 = system: NCI-H2087
Procedure, shortened: as §1

LXF-289 = system: LXF-289
Procedure, shortened: as §1

NCI-H596 = system: NCI-H596
Procedure, shortened: as §1

EPLC-272H = system: EPLC-272H
Procedure, shortened: as §1

NCI-H2023 = system: NCI-H2023
Procedure, shortened: as §1

NCI-H2170 = system: NCI-H2170
Procedure, shortened: as §1

NCI-H650 = system: NCI-H650
Procedure, shortened: as §1

A-427 = system: A-427
Procedure, shortened: as §1

CAL-12T = system: CAL-12T
Procedure, shortened: as §1

O=c1[nH]c2ccccc2n1C1CCN(CCCC(c2ccc(F)cc2)c2ccc(F)cc2)CC1 [Pimozide] + COc1cc2c(Oc3ccc(NC(=O)C4(C(=O)Nc5ccc(F)cc5)CC4)cc3F)ccnc2cc1OCCCN1CCOCC1 [Foretinib] (partner 0.25 µM)
relative viability (LCLC-103H; first compound 0.08 µM): 0.946
relative viability (LCLC-103H; first compound 0.253 µM): 0.716
relative viability (LCLC-103H; first compound 0.8 µM): 0.747
relative viability (LCLC-103H; first compound 2.53 µM): 0.678
relative viability (LCLC-103H; first compound 8 µM): 0.591
relative viability (NCI-H1993; first compound 0.08 µM): 0.705
relative viability (NCI-H1993; first compound 0.253 µM): 0.777
relative viability (NCI-H1993; first compound 0.8 µM): 0.727
relative viability (NCI-H1993; first compound 2.53 µM): 0.788
relative viability (NCI-H1993; first compound 8 µM): 0.851
relative viability (RERF-LC-KJ; first compound 0.08 µM): 0.907
relative viability (RERF-LC-KJ; first compound 0.253 µM): 0.844
relative viability (RERF-LC-KJ; first compound 0.8 µM): 0.831
relative viability (RERF-LC-KJ; first compound 2.53 µM): 0.821
relative viability (RERF-LC-KJ; first compound 8 µM): 0.848
relative viability (NCI-H1651; first compound 0.08 µM): 0.763
relative viability (NCI-H1651; first compound 0.253 µM): 0.717
relative viability (NCI-H1651; first compound 0.8 µM): 0.867
relative viability (NCI-H1651; first compound 2.53 µM): 0.871
relative viability (NCI-H1651; first compound 8 µM): 0.869
relative viability (HOP-62; first compound 0.08 µM): 1.05
relative viability (HOP-62; first compound 0.253 µM): 1.14
relative viability (HOP-62; first compound 2.53 µM): 1.04
relative viability (HOP-62; first compound 8 µM): 1.03
relative viability (COR-L 105; first compound 0.253 µM): 1.01
relative viability (COR-L 105; first compound 0.8 µM): 0.99
relative viability (COR-L 105; first compound 2.53 µM): 0.876
relative viability (COR-L 105; first compound 8 µM): 0.779
relative viability (COR-L23; first compound 0.08 µM): 1.01
relative viability (COR-L23; first compound 0.253 µM): 0.951
relative viability (COR-L23; first compound 0.8 µM): 0.909
relative viability (COR-L23; first compound 2.53 µM): 1.05
relative viability (COR-L23; first compound 8 µM): 0.905
relative viability (NCI-H647; first compound 0.08 µM): 1.28
relative viability (NCI-H647; first compound 0.253 µM): 1.17
relative viability (NCI-H647; first compound 0.8 µM): 1.14
relative viability (NCI-H647; first compound 2.53 µM): 1.22
relative viability (NCI-H647; first compound 8 µM): 1.17
relative viability (SK-MES-1; first compound 0.08 µM): 0.614
relative viability (SK-MES-1; first compound 0.253 µM): 0.955
relative viability (SK-MES-1; first compound 0.8 µM): 1.06
relative viability (SK-MES-1; first compound 2.53 µM): 1.06
relative viability (SK-MES-1; first compound 8 µM): 0.94
relative viability (NCI-H1395; first compound 0.08 µM): 1.02
relative viability (NCI-H1395; first compound 0.253 µM): 0.975
relative viability (NCI-H1395; first compound 0.8 µM): 0.953
relative viability (NCI-H1395; first compound 2.53 µM): 1.03
relative viability (NCI-H1395; first compound 8 µM): 0.91
relative viability (NCI-H2085; first compound 0.08 µM): 0.956
relative viability (NCI-H2085; first compound 0.253 µM): 0.899
relative viability (NCI-H2085; first compound 0.8 µM): 1.1
relative viability (NCI-H2085; first compound 2.53 µM): 0.909
relative viability (NCI-H2085; first compound 8 µM): 0.949
relative viability (NCI-H3122; first compound 0.08 µM): 0.911
relative viability (NCI-H3122; first compound 0.253 µM): 1
relative viability (NCI-H3122; first compound 0.8 µM): 0.91
relative viability (NCI-H3122; first compound 2.53 µM): 0.968
relative viability (NCI-H3122; first compound 8 µM): 0.923
relative viability (NCI-H1975; first compound 0.08 µM): 0.948
relative viability (NCI-H1975; first compound 0.253 µM): 0.84
relative viability (NCI-H1975; first compound 0.8 µM): 1.02
relative viability (NCI-H1975; first compound 2.53 µM): 0.847
relative viability (NCI-H1975; first compound 8 µM): 0.952
relative viability (PC-14; first compound 0.253 µM): 1
relative viability (PC-14; first compound 0.8 µM): 0.943
relative viability (PC-14; first compound 2.53 µM): 0.965
relative viability (PC-14; first compound 8 µM): 1.02
relative viability (NCI-H2087; first compound 0.08 µM): 1.21
relative viability (NCI-H2087; first compound 0.253 µM): 0.984
relative viability (NCI-H2087; first compound 2.53 µM): 1.17
relative viability (NCI-H2087; first compound 8 µM): 1.09
relative viability (LXF-289; first compound 0.08 µM): 0.989
relative viability (LXF-289; first compound 0.253 µM): 0.929
relative viability (LXF-289; first compound 0.8 µM): 0.944
relative viability (LXF-289; first compound 2.53 µM): 0.892
relative viability (LXF-289; first compound 8 µM): 0.934
relative viability (NCI-H596; first compound 0.08 µM): 0.883
relative viability (NCI-H596; first compound 0.253 µM): 0.902
relative viability (NCI-H596; first compound 0.8 µM): 1.02
relative viability (NCI-H596; first compound 2.53 µM): 0.78
relative viability (NCI-H596; first compound 8 µM): 0.821
relative viability (EPLC-272H; first compound 0.08 µM): 0.631
relative viability (EPLC-272H; first compound 0.253 µM): 0.667
relative viability (EPLC-272H; first compound 0.8 µM): 0.539
relative viability (EPLC-272H; first compound 2.53 µM): 0.175
relative viability (EPLC-272H; first compound 8 µM): 0.567
relative viability (NCI-H2023; first compound 0.08 µM): 0.687
relative viability (NCI-H2023; first compound 0.253 µM): 0.916
relative viability (NCI-H2023; first compound 0.8 µM): 0.91
relative viability (NCI-H2023; first compound 2.53 µM): 0.705
relative viability (NCI-H2023; first compound 8 µM): 0.64
relative viability (NCI-H2170; first compound 0.08 µM): 1.04
relative viability (NCI-H2170; first compound 0.253 µM): 1.03
relative viability (NCI-H2170; first compound 0.8 µM): 0.985
relative viability (NCI-H2170; first compound 2.53 µM): 0.99
relative viability (NCI-H2170; first compound 8 µM): 1.06
relative viability (NCI-H650; first compound 0.08 µM): 1.07
relative viability (NCI-H650; first compound 0.253 µM): 1.02
relative viability (NCI-H650; first compound 0.8 µM): 1
relative viability (NCI-H650; first compound 2.53 µM): 1.04
relative viability (NCI-H650; first compound 8 µM): 1.04
relative viability (A-427; first compound 0.08 µM): 1.02
relative viability (A-427; first compound 0.253 µM): 1.04
relative viability (A-427; first compound 0.8 µM): 0.976
relative viability (A-427; first compound 2.53 µM): 0.669
relative viability (A-427; first compound 8 µM): 0.966
relative viability (CAL-12T; first compound 0.08 µM): 0.979
relative viability (CAL-12T; first compound 0.253 µM): 1.17
relative viability (CAL-12T; first compound 0.8 µM): 1.11
relative viability (CAL-12T; first compound 2.53 µM): 0.928
relative viability (CAL-12T; first compound 8 µM): 0.96

Source: the supplement of paper PMC10307832
